The text below walks through data of patent publication US10351546B2, “Pyridin-3-yl acetic acid derivatives as inhibitors of human immunodeficiency virus replication” (priority 2015, dated 2019).

The subject of one assay is NL-RLuc virus. Description: Inhibition of HIV replication (NL-RLuc luciferase reporter virus in MT-2 cells). It counts as cell-based. To be noted: Human immunodeficiency virus 1, MT2, 120 h, read-out: Activity. The method, boiled down:
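The read-out is Renilla luciferase expressed by replication-competent NL-RLuc (nef partly replaced), measured 5 days after infection of MT-2 cells grown with compound dilutions in 10% FBS RPMI. Median effect equation gives EC50 from ≥2 runs; A ≤100 nM, B 100 nM–1 uM, C >1 uM.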
A general note: In a reporter assay the amount or activity of a reporter protein is the signal.
Regarding `CCNCc1nc(C)c([C@H](OC(C)(C)C)C(=O)O)c(N2CCC(C)(C)CC2)c1-c1ccc(OCCc2ccc(F)cc2)cc1` [Example 71, (S)-2-(tert-Butoxy)-2-(4-(4,4-dimethylpiperidin-1-yl)-6-((ethylamino)methyl)-5-(4-(4-fluorophenethoxy)phenyl)-2-methylpyridin-3-yl)acetic acid], the EC50 was less than 0.1 µM.

On to `Cc1cc(F)ccc1CN1CCc2cc(-c3c(CN4CCS(=O)(=O)CC4)nc(C)c([C@H](OC(C)(C)C)C(=O)O)c3N3CCC(C)(C)CC3)ccc2C1` [Example 123, (S)-2-(tert-Butoxy)-2-(4-(4,4-dimethylpiperidin-1-yl)-6-((1,1-dioxidothiomorpholino)methyl)-5-(2-(4-fluoro-2-methylbenzyl)-1,2,3,4-tetrahydroisoquinolin-6-yl)-2-methylpyridin-3-yl)acetic acid], for which the EC50 was less than 0.1 µM.

Take `Cc1nc(CN2CCC(F)CC2)c(-c2ccc(OCCc3ccc(F)cc3)cc2)c(N2CCC(C)(C)CC2)c1[C@H](OC(C)(C)C)C(=O)O` [Example 90, (S)-2-(tert-Butoxy)-2-(4-(4,4-dimethylpiperidin-1-yl)-5-(4-(4-fluorophenethoxy)phenyl)-6-((4-fluoropiperidin-1-yl)methyl)-2-methylpyridin-3-yl)acetic acid]: the EC50 was less than 0.1 µM.

For `Cc1cc(F)ccc1CN1CCc2cc(-c3c(CO)nc(C)c([C@H](OC(C)(C)C)C(=O)O)c3N3CCC(C)(C)CC3)ccc2C1` [Example 113, (S)-2-(tert-Butoxy)-2-(4-(4,4-dimethylpiperidin-1-yl)-5-(2-(4-fluoro-2-methylbenzyl)-1,2,3,4-tetrahydroisoquinolin-6-yl)-6-(hydroxymethyl)-2-methylpyridin-3-yl)acetic acid], the EC50 was less than 0.1 µM.

`Cc1nc(CN2CCCC2)c(-c2ccc(OCCc3ccc(F)cc3)cc2)c(N2CCC(C)(C)CC2)c1[C@H](OC(C)(C)C)C(=O)O` [Example 75, (S)-2-(tert-Butoxy)-2-(4-(4,4-dimethylpiperidin-1-yl)-5-(4-(4-fluorophenethoxy)phenyl)-2-methyl-6-(pyrrolidin-1-ylmethyl)pyridin-3-yl)acetic acid]: the EC50 is less than 0.1 µM.

Take `Cc1cccc(Cl)c1CN1CCc2cc(-c3c(CN4CCC5(CCC5)CC4)nc(C)c([C@H](OC(C)(C)C)C(=O)O)c3N3CCC(C)(C)CC3)ccc2C1` [Example 180, (S)-2-(6-((7-Azaspiro[3.5]nonan-7-yl)methyl)-5-(2-(2-chloro-6-methylbenzyl)-1,2,3,4-tetrahydroisoquinolin-6-yl)-4-(4,4-dimethylpiperidin-1-yl)-2-methylpyridin-3-yl)-2-(tert-butoxy)acetic acid]: the EC50 is less than 0.1 µM.

As to `Cc1cc(F)ccc1CN1CCc2cc(-c3c(CN4CC[C@H](F)C4)nc(C)c([C@H](OC(C)(C)C)C(=O)O)c3N3CCC(C)(C)CC3)ccc2C1` [Example 132, (S)-2-(tert-Butoxy)-2-(4-(4,4-dimethylpiperidin-1-yl)-5-(2-(4-fluoro-2-methylbenzyl)-1,2,3,4-tetrahydroisoquinolin-6-yl)-6-(((S)-3-fluoropyrrolidin-1-yl)methyl)-2-methylpyridin-3-yl)acetic acid], the EC50 is less than 0.1 µM.

Regarding `Cc1nc(CN2CCOCC2)c(-c2ccc(OCCc3ccc(F)cc3)cc2)c(N2CCC(C)(C)CC2)c1[C@H](OC(C)(C)C)C(=O)O` [Example 70, (S)-2-(tert-Butoxy)-2-(4-(4,4-dimethylpiperidin-1-yl)-5-(4-(4-fluorophenethoxy)phenyl)-2-methyl-6-(morpholinomethyl)pyridin-3-yl)acetic acid], the EC50 was less than 0.1 µM.

In the case of `Cc1nc(COCCN2CCOCC2)c(-c2ccc(OCCc3ccc(F)cc3)cc2)c(N2CCC(C)(C)CC2)c1[C@H](OC(C)(C)C)C(=O)O` [Example 24, (S)-2-(tert-Butoxy)-2-(4-(4,4-dimethylpiperidin-1-yl)-5-(4-(4-fluorophenethoxy)phenyl)-2-methyl-6-((2-morpholinoethoxy)methyl)pyridin-3-yl)acetic acid], the EC50 is less than 0.1 µM.

`Cc1nc(COCc2ncco2)c(-c2ccc(OCCc3ccc(F)cc3)cc2)c(N2CCC(C)(C)CC2)c1[C@H](OC(C)(C)C)C(=O)O` [Example 14, (S)-2-(tert-Butoxy)-2-(4-(4,4-dimethylpiperidin-1-yl)-5-(4-(4-fluorophenethoxy)phenyl)-2-methyl-6-((oxazol-2-ylmethoxy)methyl)pyridin-3-yl)acetic acid]: the EC50 was less than 0.1 µM.

Turning to `Cc1cc(F)ccc1CN1CCc2cc(-c3c(Cn4ncnc4C)nc(C)c([C@H](OC(C)(C)C)C(=O)O)c3N3CCC(C)(C)CC3)ccc2C1` [Example 145, (S)-2-(tert-butoxy)-2-(4-(4,4-dimethylpiperidin-1-yl)-5-(2-(4-fluoro-2-methylbenzyl)-1,2,3,4-tetrahydroisoquinolin-6-yl)-2-methyl-6-((5-methyl-1H-1,2,4-triazol-1-yl)methyl)pyridin-3-yl)acetic acid], the EC50 is less than 0.1 µM.

As to `Cc1nc(COCCN2CCCCC2)c(-c2ccc(OCCc3ccc(F)cc3)cc2)c(N2CCC(C)(C)CC2)c1[C@H](OC(C)(C)C)C(=O)O` [Example 27, (S)-2-(tert-Butoxy)-2-(4-(4,4-dimethylpiperidin-1-yl)-5-(4-(4-fluorophenethoxy)phenyl)-2-methyl-6-((2-(piperidin-1-yl)ethoxy)methyl)pyridin-3-yl)acetic acid], the EC50 is less than 0.1 µM.

Consider `Cc1nnc(C(=O)NCc2nc(C)c([C@H](OC(C)(C)C)C(=O)O)c(N3CCC(C)(C)CC3)c2-c2ccc3c(c2)CCN(Cc2ccc(F)cc2C)C3)o1` [Example 141, (S)-2-(tert-Butoxy)-2-(4-(4,4-dimethylpiperidin-1-yl)-5-(2-(4-fluoro-2-methylbenzyl)-1,2,3,4-tetrahydroisoquinolin-6-yl)-2-methyl-6-((5-methyl-1,3,4-oxadiazole-2-carboxamido)methyl)pyridin-3-yl)acetic acid], for which the EC50 is less than 0.1 µM.

Take `Cc1nc(CNC(=O)C(=O)N(C)C)c(-c2ccc(OCCc3ccc(F)cc3)cc2)c(N2CCC(C)(C)CC2)c1[C@H](OC(C)(C)C)C(=O)O` [Example 105, (S)-2-(tert-Butoxy)-2-(6-((2-(dimethylamino)-2-oxoacetamido)methyl)-4-(4,4-dimethylpiperidin-1-yl)-5-(4-(4-fluorophenethoxy)phenyl)-2-methylpyridin-3-yl)acetic acid]: the EC50 was less than 0.1 µM.

Turning to `Cc1nc(COCC2CN(C(=O)OC(C)(C)C)C2)c(-c2ccc(OCCc3ccc(F)cc3)cc2)c(N2CCC(C)(C)CC2)c1[C@H](OC(C)(C)C)C(=O)O` [Example 21, (S)-2-(tert-Butoxy)-2-(6-(((1-(tert-butoxycarbonyl)azetidin-3-yl)methoxy)methyl)-4-(4,4-dimethylpiperidin-1-yl)-5-(4-(4-fluorophenethoxy)phenyl)-2-methylpyridin-3-yl)acetic acid], the EC50 was less than 0.1 µM.

As for `Cc1nc(N)c(-c2ccc3c(c2)CCN(c2ncnc4c2cnn4C)C3)c(N2CCC(C)(C)CC2)c1[C@H](OC(C)(C)C)C(=O)O` [Example 149, (S)-2-(6-Amino-4-(4,4-dimethylpiperidin-1-yl)-2-methyl-5-(2-(1-methyl-1H-pyrazolo[3,4-d]pyrimidin-4-yl)-1,2,3,4-tetrahydroisoquinolin-6-yl)pyridin-3-yl)-2-(tert-butoxy)acetic acid], the EC50 is less than 0.1 µM.

With `CC#Cc1nc(C)c([C@H](OC(C)(C)C)C(=O)O)c(N2CCC(C)(C)CC2)c1-c1ccc(OCCc2ccc(F)cc2)cc1` [Example 163, (S)-2-(tert-butoxy)-2-(4-(4,4-dimethylpiperidin-1-yl)-5-(4-(4-fluorophenethoxy)phenyl)-2-methyl-6-(prop-1-yn-1-yl)pyridin-3-yl)acetic acid], the EC50 is less than 0.1 µM.

Consider `Cc1ncn(Cc2nc(C)c([C@H](OC(C)(C)C)C(=O)O)c(N3CCC(C)(C)CC3)c2-c2ccc3c(c2)CCN(Cc2ccc(F)cc2C)C3)n1` [Example 144, (S)-2-(tert-Butoxy)-2-(4-(4,4-dimethylpiperidin-1-yl)-5-(2-(4-fluoro-2-methylbenzyl)-1,2,3,4-tetrahydroisoquinolin-6-yl)-2-methyl-6-((3-methyl-1H-1,2,4-triazol-1-yl)methyl)pyridin-3-yl)acetic acid], for which the EC50 was less than 0.1 µM.

With `CO/C=C/c1nc(C)c([C@H](OC(C)(C)C)C(=O)O)c(N2CCC(C)(C)CC2)c1-c1ccc(OCCc2ccc(F)cc2)cc1` [Example 57, (S,E)-2-(tert-Butoxy)-2-(4-(4,4-dimethylpiperidin-1-yl)-5-(4-(4-fluorophenethoxy)phenyl)-6-(2-methoxyvinyl)-2-methylpyridin-3-yl)acetic acid], the EC50 was less than 0.1 µM.

With `Cc1nc(CN(C)C(=O)C(=O)N(C)C)c(-c2ccc(OCCc3ccc(F)cc3)cc2)c(N2CCC(C)(C)CC2)c1[C@H](OC(C)(C)C)C(=O)O` [Example 102, (S)-2-(tert-Butoxy)-2-(6-((2-(dimethylamino)-N-methyl-2-oxoacetamido)methyl)-4-(4,4-dimethylpiperidin-1-yl)-5-(4-(4-fluorophenethoxy)phenyl)-2-methylpyridin-3-yl)acetic acid], the EC50 is less than 0.1 µM.

As for `CCOCCOCc1nc(C)c([C@H](OC(C)(C)C)C(=O)O)c(N2CCC(C)(C)CC2)c1C` [Example 36, (S)-2-(tert-Butoxy)-2-(4-(4,4-dimethylpiperidin-1-yl)-6-((2-ethoxyethoxy)methyl)-2,5-dimethylpyridin-3-yl)acetic acid], the EC50 is less than 0.1 µM.

Turning to `Cc1nc(N2CCCCC2)c(-c2ccc(OCCc3ccc(F)cc3)cc2)c(N2CCC(C)(C)CC2)c1[C@H](OC(C)(C)C)C(=O)O` [Example 53, (S)-2-(tert-Butoxy)-2-(4-(4,4-dimethylpiperidin-1-yl)-5-(4-(4-fluorophenethoxy)phenyl)-2-methyl-6-(piperidin-1-yl)pyridin-3-yl)acetic acid], the EC50 is less than 0.1 µM.

Staying with this assay, now noted: Human immunodeficiency virus 1, MT2, 120 h, read-out: EC50 μM.
For the compound `CCNCc1nc(C)c([C@H](OC(C)(C)C)C(=O)O)c(N2CCC(C)(C)CC2)c1-c1ccc(OCCc2ccc(F)cc2)cc1` [Example 71, (S)-2-(tert-Butoxy)-2-(4-(4,4-dimethylpiperidin-1-yl)-6-((ethylamino)methyl)-5-(4-(4-fluorophenethoxy)phenyl)-2-methylpyridin-3-yl)acetic acid], the EC50 is 0.002 µM.

In the case of `Cc1nc(COCCN2CCOCC2)c(-c2ccc(OCCc3ccc(F)cc3)cc2)c(N2CCC(C)(C)CC2)c1[C@H](OC(C)(C)C)C(=O)O` [Example 24, (S)-2-(tert-Butoxy)-2-(4-(4,4-dimethylpiperidin-1-yl)-5-(4-(4-fluorophenethoxy)phenyl)-2-methyl-6-((2-morpholinoethoxy)methyl)pyridin-3-yl)acetic acid], the EC50 is 0.001 µM.

For the compound `Cc1ncn(Cc2nc(C)c([C@H](OC(C)(C)C)C(=O)O)c(N3CCC(C)(C)CC3)c2-c2ccc3c(c2)CCN(Cc2ccc(F)cc2C)C3)n1` [Example 144, (S)-2-(tert-Butoxy)-2-(4-(4,4-dimethylpiperidin-1-yl)-5-(2-(4-fluoro-2-methylbenzyl)-1,2,3,4-tetrahydroisoquinolin-6-yl)-2-methyl-6-((3-methyl-1H-1,2,4-triazol-1-yl)methyl)pyridin-3-yl)acetic acid], the EC50 is 0.025 µM.

Regarding `CO/C=C/c1nc(C)c([C@H](OC(C)(C)C)C(=O)O)c(N2CCC(C)(C)CC2)c1-c1ccc(OCCc2ccc(F)cc2)cc1` [Example 57, (S,E)-2-(tert-Butoxy)-2-(4-(4,4-dimethylpiperidin-1-yl)-5-(4-(4-fluorophenethoxy)phenyl)-6-(2-methoxyvinyl)-2-methylpyridin-3-yl)acetic acid], the EC50 worked out at 0.012 µM.
